Where two headings read alike, the source gives them in different places.
Test system: primary rat mixed cortical cells
Experiment: In vitro myelination assay (MBP positive myelin strands, fold myelin pixels above background)
Assay type: cell-based
Conditions: Rattus norvegicus, relative to baseline of no added compound; for fold induction at 1 µM: 1.0 μM compound; for fold induction at 10 µM: 10.0 μM compound
Method in brief: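 P1 rat cortical cells (neurons, OPCs, oligodendrocytes, astrocytes, microglia) were cultured 14 days at 37 °C with compound, with half-medium changes containing 1× compound on days 6 and 10. Fixed cells were immunostained for MBP and imaged at 10×. Total MBP myelin pixels per well were expressed as fold above no-compound baseline at 1.0 μM and 10.0 μM.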

[1] = read-out: Fold myelin pixels above background, 1.0 μM
[2] = read-out: Fold myelin pixels above background, 10.0 μM
[3] = read-out: Fold myelin pixels above background

Row | Structure (SMILES) | fold induction at 1 µM [1] | fold induction at 10 µM [2] | fold induction at 1 µM [3] | fold induction at 10 µM [3]
1 | COCc1cc(-n2cnc(Nc3cc(C)cc(N4CCN(C5COC5)CC4)c3)n2)ncn1 [Compound 364, 1-[6-(methoxymethyl)pyrimidin-4-yl]-N-[3-methyl-5-[4-(oxetan-3-yl)piperazin-1-yl]phenyl]-1,2,4-triazol-3-amine] | 1 to 10 | 10 to 100 |  | 
2 | Cc1cc(Nc2ncn(-c3cc(F)cc(F)c3)n2)cc(N2CCN(C)CC2)n1 [Compound 365, N-[1-(3,5-difluorophenyl)-1,2,4-triazol-3-yl]-2-methyl-6-(4-methylpiperazin-1-yl)pyridin-4-amine] | 10 to 100 | ≤ 1 |  | 
3 | FC(F)(F)c1cc(Nc2ncn(-c3ccccc3)n2)cc(N2CCOCC2)c1 [Compound 366, N-[3-morpholino-5-(trifluoromethyl)phenyl]-1-phenyl-1,2,4-triazol-3-amine] | 1000 to 10000 | 1000 to 10000 |  | 
4 | CN1CCN(c2cc(Nc3ncn(-c4ccccc4)n3)cc(Cl)n2)CC1 [Compound 367, 2-chloro-6-(4-methylpiperazin-1-yl)-N-(1-phenyl-1,2,4-triazol-3-yl)pyridin-4-amine] | 100 to 1000 | 100 to 1000 |  | 
5 | CCc1cc(Nc2ncn(-c3cnccn3)n2)cc(N2CCN(C(=O)OC(C)(C)C)CC2)c1 [Compound 368, tert-butyl 4-[3-ethyl-5-[(1-pyrazin-2-yl-1,2,4-triazol-3-yl)amino]phenyl]piperazine-1-carboxylate] | 10 to 100 | 1 to 10 |  | 
6 | Cc1cc(Nc2ncn(-c3ccccc3)n2)cc(N2C[C@H]3CCN(C)[C@H]3C2)c1 [Compound 369, N-[3-[(3aR,6aR)-1-methyl-2,3,3a,4,6,6a-hexahydropyrrolo[2,3-c]pyrrol-5-yl]-5-methyl-phenyl]-l-phenyl-1,2,4-triazol-3-amine] | 1000 to 10000 | ≤ 1 |  | 
7 | CC(=O)N1CCN(c2cc(C)cc(Nc3ncn(-c4cc(F)cc(F)c4)n3)c2)CC1 [Compound 370, 1-[4-[3-[[1-(3,5-difluorophenyl)-1,2,4-triazol-3-yl]amino]-5-methyl-phenyl]piperazin-1-yl]ethanone] | 1000 to 10000 | 100 to 1000 |  | 
8 | Fc1cc(Nc2ncn(-c3cncc(F)c3)n2)cc(N2CCOCC2)c1 [Compound 371, N-(3-fluoro-5-morpholino-phenyl)-1-(5-fluoro-3-pyridyl)-1,2,4-triazol-3-amine] | 1 to 10 | 100 to 1000 |  | 
9 | Cc1ccc(-n2cnc(Nc3cc(C)cc(N4CCCC4)c3)n2)cc1 [Compound 372, N-(3-methyl-5-pyrrolidin-1-yl-phenyl)-1-(p-tolyl)-1,2,4-triazol-3-amine] | 1 to 10 | 10 to 100 |  | 
10 | COCCN(C)c1cc(F)cc(-n2cnc(Nc3cc(C)cc(N4CCN(C5COC5)CC4)c3)n2)c1 [Compound 373, 1-[3-fluoro-5-[2-methoxyethyl(methyl)amino]phenyl]-N-[3-methyl-5-[4-(oxetan-3-yl)piperazin-1-yl]phenyl]-1,2,4-triazol-3-amine] | 100 to 1000 | 100 to 1000 |  | 
11 | Cc1cc(Nc2ncn(-c3cc(F)cc(F)c3)n2)cc(N2CCOCC2)c1 [Compound 374, 1-(3,5-difluorophenyl)-N-(3-methyl-5-morpholino-phenyl)-1,2,4-triazol-3-amine] | 100 to 1000 | 100 to 1000 |  | 
12 | Cc1cc(Nc2ncn(-c3cccc(F)c3)n2)cc(N2CCN(C3(C)COC3)CC2)c1 [Compound 375, 1-(3-fluorophenyl)-N-[3-methyl-5-[4-(3-methyloxetan-3-yl)piperazin-1-yl]phenyl]-1,2,4-triazol-3-amine] | 1000 to 10000 | 10 to 100 |  | 
13 | CC(C)(C)c1cc(Nc2ncn(-c3ccccc3)n2)cc(N2CCN(C3COC3)CC2)c1 [Compound 376, N-[3-tert-butyl-5-[4-(oxetan-3-yl)piperazin-1-yl]phenyl]-1-phenyl-1,2,4-triazol-3-amine] | 100 to 1000 | 1 to 10 |  | 
14 | COc1cc(-n2cnc(Nc3cc(C4CC4)cc(N4CCN(C5COC5)CC4)c3)n2)ncn1 [Compound 377, N-[3-cyclopropyl-5-[4-(oxetan-3-yl)piperazin-1-yl]phenyl]-1-(6-methoxypyrimidin-4-yl)-1,2,4-triazol-3-amine] | 100 to 1000 | 10 to 100 |  | 
15 | Fc1cc(F)cc(-n2cnc(Nc3cc(C4CC4)nc(N4CCCCC4)c3)n2)c1 [Compound 378, 2-cyclopropyl-N-[1-(3,5-difluorophenyl)-1,2,4-triazol-3-yl]-6-(1-piperidyl)pyridin-4-amine] | 1 to 10 | 10 to 100 |  | 
16 | Cc1cc(Nc2ncn(-c3cc(F)cc(F)c3)n2)cc(N2CC(n3cccn3)C2)c1 [Compound 379, 1-(3,5-difluorophenyl)-N-[3-methyl-5-(3-pyrazol-1-ylazetidin-1-yl)phenyl]-1,2,4-triazol-3-amine] | 10 to 100 | 100 to 1000 |  | 
17 | Clc1cc(Nc2ncn(-c3ccccc3)n2)cc(N2CCCC2)c1 [Compound 380, N-(3-chloro-5-pyrrolidin-1-yl-phenyl)-1-phenyl-1,2,4-triazol-3-amine] | 100 to 1000 | 10 to 100 |  | 
18 | Cc1cc(Nc2ncn(-c3cncnc3)n2)cc(N2CCN(C)CC2)c1 [Compound 381, N-[3-methyl-5-(4-methylpiperazin-1-yl)phenyl]-1-pyrimidin-5-yl-1,2,4-triazol-3-amine] | 1 to 10 | 100 to 1000 |  | 
19 | Cc1cc(Nc2ncn(-c3cccc(F)c3)n2)cc(C2CCN(C3COC3)C2)c1 (stereo not drawn) [Compound 382, 1-(3-fluorophenyl)-N-[3-methyl-5-[1-(oxetan-3-yl)pyrrolidin-3-yl]phenyl]-1,2,4-triazol-3-amine] | 1000 to 10000 | 1 to 10 |  | 
20 | Cc1cc(Nc2ncn(-c3cc(F)ccc3F)n2)cc(N2CCC(C3COC3)CC2)c1 [Compound 383, 1-(2,5-difluorophenyl)-N-[3-methyl-5-[4-(oxetan-3-yl)-1-piperidyl]phenyl]-1,2,4-triazol-3-amine] | 10 to 100 | 1 to 10 |  | 
21 | Cc1cc(Nc2ncn(-c3ccc(F)c(F)c3)n2)cc(OC2CCN(C3COC3)CC2)c1 [Compound 384, 1-(3,4-difluorophenyl)-N-[3-methyl-5-[[1-(oxetan-3-yl)-4-piperidyl]oxy]phenyl]-1,2,4-triazol-3-amine] | 100 to 1000 | 100 to 1000 |  | 
22 | COCC1CCN(c2cc(C)cc(Nc3ncn(-c4ccncc4)n3)c2)CC1 [Compound 385, N-[3-[4-(methoxymethyl)-1-piperidyl]-5-methyl-phenyl]-1-(4-pyridyl)-1,2,4-triazol-3-amine] | 100 to 1000 | 100 to 1000 |  | 
23 | Cc1cc(Nc2ncn(-c3ccc(F)c(F)c3)n2)cc(N2CCN(C3COC3)CC2)c1 [Compound 386, 1-(3,4-difluorophenyl)-N-[3-methyl-5-[4-(oxetan-3-yl)piperazin-1-yl]phenyl]-1,2,4-triazol-3-amine] |  |  | 100 to 1000 | 1000 to 10000
24 | Cc1cc(Nc2ncn(-c3cncc(F)c3)n2)cc(N2CCN(C)CC2)c1 [Compound 387, 1-(5-fluoro-3-pyridyl)-N-[3-methyl-5-(4-methylpiperazin-1-yl)phenyl]-1,2,4-triazol-3-amine] |  |  | 10 to 100 | 100 to 1000
